In brackets after ≈: the same amount, converted by molar mass.
System: Staphylococcus aureus ATCC29213
Assay: Minimum Inhibitory Concentration (MIC) testing, broth microdilution, Staphylococcus aureus
Assay type: cell-based
Conditions: Staphylococcus aureus ATCC29213
Method: (§1) Compounds of this invention were tested for antimicrobial activity by susceptibility testing in liquid media. MICs for compounds against each strain were determined by a broth microdilution method according to the National Committee for Clinical Laboratory Standards (NCCLS) guidelines. (NCCLS. 2000. Methods for dilution antimicrobial susceptibility tests for bacteria that grow aerobically—fifth edition. Approved standard M7-A5. NCCLS, Wayne, Pa.)
(§2) Briefly, test compounds are prepared in 100 μl of 1.6% DMSO solution in multiwell plates. Several bacterial colonies from a freshly streaked plate are transferred to an appropriate rich broth, such as Mueller Hinton. The cell suspension is adjusted to an optical density of 0.09 and further diluted 1:100 with warm 2× broth. This cell suspension is dispensed into the wells containing compound solution so that the final volume is 200 μl. The plates are incubated overnight (16-20 hours) at 37° C. and turbidity is scored by eye and quantified spectrophotometrically. The MIC is defined as the lowest concentration inhibiting visible growth.
Some of the compounds of the Examples were also tested for activity against the pathogenic organism Staphylococcus aureus ATCC29213. […] Activities were again scored as ‘A’ if the MIC was ≦8 micrograms/ml, ‘B’ if the MIC was 16 to 64 micrograms/ml and ‘C’ if the MIC was greater than 64 micrograms/ml.

Compound	Staphylococcus aureus MICs Activity
3-Pentyl-2,3-dihydro-1,4-benzodioxine-6-carboxamide and 2-pentyl-2,3-dihydro-1,4-benzodioxine-6-carboxamide [Example 95]	C (‘C’ if the MIC was greater than 64 micrograms/ml)

Same assay, conditions: Staphylococcus aureus ATCC29213; read-out: Staphylococcus aureus MICs Activity

Compound	MIC
CCCCCCCCCOc1cccc(C(N)=O)c1 [Example 1, 3-Nonyloxy-benzenecarboxamide]	< 8 µg/mL
CCCCCOc1cccc(C(N)=O)c1 [Example 5, 3-(Pentyloxy)benzenecarboxamide]	16 to 64 µg/mL (≈ 77.2 to 309 µM)
CCCCCCOc1cccc(C(N)=O)c1 [Example 8, 3-(Hexyloxy)benzenecarboxamide]	16 to 64 µg/mL (≈ 72.3 to 289 µM)

System: Bacillus subtilis 168CA
Assay: Minimum Inhibitory Concentration (MIC) testing, broth microdilution, Bacillus subtilis
Assay type: cell-based
Conditions: Bacillus subtilis 168CA
Method: as §1, §2
Activities were scored as ‘A’ if the MIC was ≦8 micrograms/ml, ‘B’ if the MIC was 16 to 64 micrograms/ml and ‘C’ if the MIC was greater than 64 micrograms/ml.

Compound	Bacillus subtilis MICs Activity
3-Pentyl-2,3-dihydro-1,4-benzodioxine-6-carboxamide and 2-pentyl-2,3-dihydro-1,4-benzodioxine-6-carboxamide [Example 95]	B (‘B’ if the MIC was 16 to 64 micrograms/ml)

Same assay, conditions: Bacillus subtilis 168CA; read-out: Bacillus subtilis MICs Activity

Compound	MIC
CCCCCCCCCOc1cccc(C(N)=O)c1 [Example 1, 3-Nonyloxy-benzenecarboxamide]	< 8 µg/mL
CCCOc1cccc(C(N)=O)c1 [Example 2, 3-Propoxybenzenecarboxamide]	> 64 µg/mL
CC(C)Oc1cccc(C(N)=O)c1 [Example 3, 3-Isopropoxybenzenecarboxamide]	> 64 µg/mL
NC(=O)c1cccc(OCC2CC2)c1 [Example 4, 3-(Cyclopropylmethoxy)benzenecarboxamide]	> 64 µg/mL
CCCCCOc1cccc(C(N)=O)c1 [Example 5, 3-(Pentyloxy)benzenecarboxamide]	16 to 64 µg/mL (≈ 77.2 to 309 µM)
C=CCOc1cccc(C(N)=O)c1 [Example 6, 3-(Allyloxy)benzenecarboxamide]	> 64 µg/mL
CCCCOc1cccc(C(N)=O)c1 [Example 7, 3-Butoxybenzenecarboxamide]	> 64 µg/mL
CCCCCCOc1cccc(C(N)=O)c1 [Example 8, 3-(Hexyloxy)benzenecarboxamide]	16 to 64 µg/mL (≈ 72.3 to 289 µM)
COCCOc1cccc(C(N)=O)c1 [Example 9, 3-(2-Methoxyethoxy)benzenecarboxamide]	> 64 µg/mL
NC(=O)c1cccc(OCCCCOc2ccccc2)c1 [Example 10, 3-(4-Phenoxybutoxy)benzenecarboxamide]	< 8 µg/mL
C=C(C)COc1cccc(C(N)=O)c1 [Example 11, 3-[(2-Methyl-2-propenyl)oxy]benzenecarboxamide]	> 64 µg/mL
CC(C)CCOc1cccc(C(N)=O)c1 [Example 13, 3-(Isopentyloxy)benzenecarboxamide]	16 to 64 µg/mL (≈ 77.2 to 309 µM)
CC(C)CCCOc1cccc(C(N)=O)c1 [Example 14, 3-[(4-Methylpentyl)oxy]benzenecarboxamide]	16 to 64 µg/mL (≈ 72.3 to 289 µM)
CCCOCCOc1cccc(C(N)=O)c1 [Example 16, 3-(2-Propoxyethoxy)benzenecarboxamide]	> 64 µg/mL
NC(=O)c1cccc(OCCCCc2ccccc2)c1 [Example 20, 3-(4-Phenylbutoxy)benzenecarboxamide]	< 8 µg/mL
NC(=O)c1cccc(OCCCCCc2ccccc2)c1 [Example 21, 3-[(5-Phenylpentyl)oxy]benzenecarboxamide]	16 to 64 µg/mL (≈ 56.5 to 226 µM)
CC(C)CCCCOc1cccc(C(N)=O)c1 [Example 22, 3-[(5-Methylhexyl)oxy]benzenecarboxamide]	16 to 64 µg/mL (≈ 68 to 272 µM)
NC(=O)c1cccc(OCc2ccc3ccccc3n2)c1 [Example 23, 3-(2-Quinolinylmethoxy)benzenecarboxamide]	16 to 64 µg/mL (≈ 57.5 to 230 µM)
CCOC(=O)CCCOc1cccc(C(N)=O)c1 [Example 25, Ethyl 4-[3-(aminocarbonyl)phenoxy]butanoate]	> 64 µg/mL
CCOC(=O)COc1cccc(C(N)=O)c1 [Example 33, Ethyl 2-[3-(aminocarbonyl)phenoxy]acetate]	> 64 µg/mL
NC(=O)c1cccc(OCCc2ccc(F)cc2)c1 [Example 34, 3-[(4-Fluorophenethyl)oxy]benzenecarboxamide]	16 to 64 µg/mL (≈ 61.7 to 247 µM)
COc1ccc(CCOc2cccc(C(N)=O)c2)cc1 [Example 35, 3-[(4-Methoxyphenethyl)oxy]benzenecarboxamide]	16 to 64 µg/mL (≈ 59 to 236 µM)
CCOC(=O)CCCCCOc1cccc(C(N)=O)c1 [Example 37, Ethyl 6-[3-(aminocarbonyl)phenoxy]hexanoate]	> 64 µg/mL
COC(=O)CCCCCCCCCOc1cccc(C(N)=O)c1 [Example 38, Methyl 10-[3-(aminocarbonyl)phenoxy]decanoate]	< 8 µg/mL
NC(=O)c1cccc(OCCCCC2CCCCC2)c1 [Example 44, 3-(4-Cyclohexylbutoxy)benzenecarboxamide]	< 8 µg/mL

Compound	MIC
CCCCC#CCCCCOc1cccc(C(N)=O)c1 [Example 48, 3-(5-Decynyloxy)benzenecarboxamide]	< 8 µg/mL
CCCCCCC#CCOc1cccc(C(N)=O)c1 [Example 50, 3-(2-Nonynyloxy)benzenecarboxamide]	< 8 µg/mL
Cc1cccc2nc(COc3ccc(F)c(C(N)=O)c3F)ccc12 [Example 96, 2,6-Difluoro-3-(5-methyl-quinolin-2-ylmethoxy)-benzamide]	16 to 64 µg/mL (≈ 48.7 to 195 µM)
Cc1ccc2nc(COc3ccc(F)c(C(N)=O)c3F)ccc2c1 [Example 97, 2,6-Difluoro-3-(6-methyl-quinolin-2-ylmethoxy)-benzamide]	< 8 µg/mL
NC(=O)c1c(F)ccc(OCc2ccc3cc(Cl)ccc3n2)c1F [Example 110, 3-(6-Chloro-quinolin-2-ylmethoxy)-2,6-difluoro-benzamide]	< 8 µg/mL
NC(=O)c1c(F)ccc(OCc2ccc3cccc(Cl)c3n2)c1F [Example 112, 3-(8-Chloro-quinolin-2-ylmethoxy)-2,6-difluoro-benzamide]	< 8 µg/mL
NC(=O)c1c(F)ccc(OCc2ccc3ccccc3c2)c1F [Example 113, 2,6-Difluoro-3-(naphthalen-2-ylmethoxy)-benzamide]	< 8 µg/mL
Cc1cccc(-c2ccc3sc(COc4ccc(F)c(C(N)=O)c4F)nc3c2)c1 [Example 142, 2,6-Difluoro-3-(5-m-tolyl-benzothiazol-2-ylmethoxy)-benzamide]	< 8 µg/mL
NC(=O)c1c(F)ccc(OCc2cccc(OCc3ccccc3)c2)c1F [Example 154, 3-(3-Benzyloxy-benzyloxy)-2,6-difluoro-benzamide]	< 8 µg/mL
Cc1sc(-c2ccccc2)nc1CCCOc1ccc(F)c(C(N)=O)c1F [Example 160, 2,6-Difluoro-3-[3-(5-methyl-2-phenyl-thiazol-4-yl)-propoxy]-benzamide]	< 8 µg/mL
NC(=O)c1c(F)ccc(OCc2cn3ccccc3n2)c1F [Example 203, 2,6-Difluoro-3-(imidazo[1,2-a]pyridin-2-ylmethoxy)benzenecarboxamide]	> 64 µg/mL
NC(=O)c1c(F)ccc(OCc2nnc(-c3ccc(Cl)cc3)s2)c1F [Example 234, 3-[5-(4-Chlorophenyl)-1,3,4-thiadiazol-2-yl]methoxy-2,6-difluorobenzenecarboxamide]	< 8 µg/mL
NC(=O)c1c(F)ccc(OCc2nnc(-c3ccccc3)o2)c1F [Example 238, 2,6-Difluoro-3-[(5-phenyl-1,3,4-oxadiazol-2-yl)methoxy]benzenecarboxamide]	16 to 64 µg/mL (≈ 48.3 to 193 µM)
NC(=O)c1c(F)ccc(OCc2nc(-c3ccccc3O)no2)c1F [Example 253, 2,6-Difluoro-3-[3-(2-hydroxyphenyl)-1,2,4-oxadiazol-5-yl]methoxybenzenecarboxamide]	16 to 64 µg/mL (≈ 46.1 to 184 µM)
NC(=O)c1c(F)ccc(OCc2nc(-c3ccccc3Cl)no2)c1F [Example 254, 3-[3-(2-Chlorophenyl)-1,2,4-oxadiazol-5-yl]methoxy-2,6-difluorobenzenecarboxamide]	< 8 µg/mL
NC(=O)c1c(F)ccc(OCc2nc(-c3cccc(Cl)c3)no2)c1F [Example 255, 3-[3-(3-Chlorophenyl)-1,2,4-oxadiazol-5-yl]methoxy-2,6-difluorobenzenecarboxamide]	< 8 µg/mL
NC(=O)c1c(F)ccc(OCc2nc(-c3cccc(C(F)(F)F)c3)no2)c1F [Example 258, 2,6-Difluoro-3-(3-[3-(trifluoromethyl)phenyl]-1,2,4-oxadiazol-5-ylmethoxy)benzenecarboxamide]	< 8 µg/mL
NC(=O)c1c(F)ccc(OCc2nc(-c3cccc([N+](=O)[O-])c3)no2)c1F [Example 259, 2,6-Difluoro-3-[3-(3-nitrophenyl)-1,2,4-oxadiazol-5-yl]methoxybenzenecarboxamide]	< 8 µg/mL
COc1ccc(-c2noc(COc3ccc(F)c(C(N)=O)c3F)n2)c(OC)c1 [Example 261, 3-[3-(2,4-Dimethoxyphenyl)-1,2,4-oxadiazol-5-yl]methoxy-2,6-difluorobenzenecarboxamide]	16 to 64 µg/mL (≈ 40.9 to 164 µM)
NC(=O)c1c(F)ccc(OCc2nc(COc3c(Cl)cccc3Cl)no2)c1F [Example 264, 3-(3-[(2,6-Dichlorophenoxy)methyl]-1,2,4-oxadiazol-5-ylmethoxy)-2,6-difluorobenzenecarboxamide]	16 to 64 µg/mL (≈ 37.2 to 149 µM)
COc1cc(-c2noc(COc3ccc(F)c(C(N)=O)c3F)n2)ccc1OC(F)F [Example 328, 3-[3-(4-Difluoromethoxy-3-methoxy-phenyl)-[1,2,4]oxadiazol-5-ylmethoxy]-2,6-difluoro-benzamide]	< 8 µg/mL
NC(=O)c1c(F)ccc(OCc2nc(-c3ccc(Cl)c([N+](=O)[O-])c3)no2)c1F [Example 329, 3-[3-(4-Chloro-3-nitro-phenyl)-[1,2,4]oxadiazol-5-ylmethoxy]-2,6-difluoro-benzamide]	< 8 µg/mL
NC(=O)c1c(F)ccc(OCc2ccc3cccnc3c2)c1F [Example 330, 2,6-Difluoro-3-(quinolin-7-ylmethoxy)-benzamide]	16 to 64 µg/mL (≈ 50.9 to 204 µM)
NC(=O)c1c(F)ccc(OCc2cccc([N+](=O)[O-])c2)c1F [Example 332, 2,6-Difluoro-3-(3-nitro-benzyloxy)-benzamide]	16 to 64 µg/mL (≈ 51.9 to 208 µM)
